# US11141462B2, “Method for the treatment or prevention of osteoarthritis” (Chondropeptix B.V., priority 2016, dated 2021)
# Legend:
# Format in all cases: cell-based, human
# [1] = system: OA articular chondrocytes; assay: OA chondrocyte phenotype gene expression screening of BMP-7 peptides (RT-qPCR); set-up: key to IL-6 / ADAMTS5 / COL10A / BAPX1/NKX3.2 / ALP / RUNX2: —: [-] denotes the absence of a significant effect or a significantly decreased expression of chondrogenic marker genes BAPX1/NKX3.2, or a significantly increased expression of OA phenotypic markers IL-6, ADAMTS5, COL10A, ALP and RUNX2 in OA articular chondrocytes, in comparison to untreated OA articular chondrocytes; conditions: for ADAMTS5 / ALP / BAPX1/NKX3.2 / COL10A / IL-6 / RUNX2: Table 1, gene expression in OA articular chondrocytes vs untreated; for suppression of the OA chondrocyte phenotype: independent of the tested concentration (1000, 100, 10 and 1 nM were tested); for activity in the assays as employed herein (table 2): peptides with additional amino acid N-terminal of position 100
# Description: (§1) FIG. 2: The action of 20-mer peptides (10 nM) of SEQ ID NO: 2-17 (peptides with 1 or 2 amino acids intervals (18-19 amino acid overlap)) and a random peptide with a sequence according to SEQ ID NO: 49 on the expression of ADAMTS5 was determined on a validated pool of passage 2 OA human articular chondrocytes (n=18) and compared to full-length recombinant BMP-7 (1 nM). Samples were harvested after 24 hours and analyzed for indicated genes by RT-qPCR (normalized for 28S rRNA expression and relative to control conditions (no peptide exposure)). In the graphs, numbers on the x-axis represent individual peptides according to their SEQ ID NO's, error bars represent mean±SEM, statistical differences were calculated (one-way ANOVA with bonferroni correction) to control condition. *=p<0.05 lower than control condition for ADAMTS5. Random peptide is a peptide according to SEQ ID NO: 49.
# as §1, with “3:” for “2:”, “ALP” for “ADAMTS5”, “ALP.” for “ADAMTS5.”
# as §1, with “4:” for “2:”, “BAPX1/NKX3.2” for “ADAMTS5”, “BAPX1/NKX3.2.” for “ADAMTS5.”
# as §1, with “5:” for “2:”, “COL10A1” for “ADAMTS5”, “COL10A1.” for “ADAMTS5.”
# FIG. 6: The action of 20-mer peptides (10 nM) of SEQ ID NO: 2-17 (peptides with 1 or 2 amino acids intervals (18-19 amino acid overlap)) and a random peptide with a sequence according to SEQ ID NO: 49 on the expression of IL-6 was determined on a validated pool of passage 2 OA human articular chondrocytes (n=18) and compared to full-length recombinant BMP-7 (1 nM). […]
# [2] = system: Synovial tissue samples from OA patients; assay: PGE2 ELISA, synovial tissue samples; conditions: 10 nM, 24 h
# Description: Synovial tissue samples from OA patients (n=6) were treated with BMP-7 (1 nM), with peptide […] (SEQ ID NO: 13) at 10 nM or a scrambled irrelevant control peptide (10 nM) for 24 h. PGE2 levels were determined via an ELISA.
# [3] = system: Hoffa's fat pad tissue samples from OA patients; assay: PGE2 ELISA, Hoffa's fat pad tissue samples; conditions: 10 nM, 24 h
# Description: Hoffa's fat pad tissue samples from OA patients (n=6) were treated with BMP-7 (1 nM) with peptide […] (SEQ ID NO: 13) at 10 nM or a scrambled irrelevant control peptide (10 nM) for 24 h. PGE2 levels were determined via an ELISA.
# [4] = system: Cartilage explants from OA patient's knee cartilage; assay: PGE2 ELISA, cartilage explants; conditions: 10 nM, 14 days
# Description: Cartilage explants of 3 mm^2 were taken from OA patient's knee cartilage (n=6) and treated with BMP-7 (1 nM), with peptide […] (SEQ ID NO: 13) at 10 nM or a scrambled irrelevant control peptide (10 nM) for 14 days. Prostaglandin E2 (PGE2) levels, a pro-hypertrophic factor, were determined via an ELISA.
# [5] = system: Meniscus tissue samples from OA patients; assay: PGE2 ELISA, meniscus tissue samples; conditions: 10 nM, 24 h
# Description: Meniscus tissue samples from OA patients (n=6) were treated with BMP-7 (1 nM) with peptide peptide […] (SEQ ID NO: 13) at 10 nM or a scrambled irrelevant control peptide (10 nM) for 24 h. PGE2 levels were determined via an ELISA.
# Cartilage explants = assay: Safranin-O staining of glycosaminoglycans in cartilage explants; conditions: 10 nM, 14 days; explants from 2 patients; compared to control
# Description: Cartilage explants obtained from 2 patients were cultured for 14 days in the presence of BMP-7 (1 nM) or BMP-7 mimicking peptide […] (SEQ ID NO: 13) at 10 nM. Glycosaminoglycans (GAGs), an important component of the extracellular matrix (ECM), were stained with Safranin-O (in red) and other tissues are counterstained with Fast green (in green/blue).
# [6] = system: Isolated chondrocytes from OA patients; assay: Treatment of isolated chondrocytes from OA patients, gene expression by qRT-PCR; conditions: 1 nM, 24 h; qRT-PCR normalized for 28S rRNA; n=6
# Description: Isolated chondrocytes from OA patients (n=6) were treated with BMP-7 (1 nM) or the 12-mer peptide according to SEQ ID NO: 43 (1 nM) for 24 h. Pro-chondrogenic (FIG. 8A) and hypertrophic (FIGS. 8B, 8C and 8D) gene expression was determined via qRT-PCR and normalized for 28S rRNA levels.
# [7] = system: cartilage explants from OA patient's knee articular cartilage; assay: Treatment of cartilage explants, hypertrophic gene expression by qRT-PCR; conditions: 10 nM, 24 h
# Description: 4 mm 2 cartilage explants were taken from non-lesion areas of OA patient's knee articular cartilage (n=5) and randomly assigned to different experimental treatment conditions (4 explants per treatment group). After a 24 h equilibration period the explants were treated with BMP-7 (1 nM) or the 12-mer peptide according to SEQ ID NO: 43 (10 nM) for 24 h. Hypertrophic gene expression was determined via qRT-PCR and normalized for 28S rRNA levels. After treatment with BMP-7 or the 12 mer we observed a downregulation of pro-hypertrophic genes, such as Col10a1 (FIG. 9A) and MMP13 (FIG. 9B).
substance,measurement,setting,value
22 (DLGWQDWIIAPEGYAAYYCE; listed as Homo sapiens) [compound 22],ADAMTS5,[1],—
same,ALP,[1],—
same,BAPX1/NKX3.2,[1],—
same,COL10A,[1],—
same,IL-6,[1],—
same,RUNX2,[1],—
23 (CEGECAFPLNSYMNATNHAI; listed as Homo sapiens) [compound 23],ADAMTS5,[1],—
same,ALP,[1],—
same,BAPX1/NKX3.2,[1],—
same,COL10A,[1],—
same,IL-6,[1],—
same,RUNX2,[1],—
24 (AIVQTLVHFINPETVPKPCC; listed as Homo sapiens) [compound 24],ADAMTS5,[1],—
same,ALP,[1],—
same,BAPX1/NKX3.2,[1],—
same,COL10A,[1],—
same,IL-6,[1],—
same,RUNX2,[1],—
25 (CCAPTQLNAISVLYFDDSSN; listed as Homo sapiens) [compound 25],ADAMTS5,[1],—
same,ALP,[1],—
same,BAPX1/NKX3.2,[1],—
same,COL10A,[1],—
same,IL-6,[1],—
same,RUNX2,[1],—
26 (SSNVILKKYRNMVVRACGCH; listed as Homo sapiens) [compound 26],ADAMTS5,[1],—
same,ALP,[1],—
same,BAPX1/NKX3.2,[1],—
same,COL10A,[1],—
same,IL-6,[1],—
same,RUNX2,[1],—
AISVLYFDDSSNVILKKYRN (listed as Homo sapiens) [SEQ ID NO: 12],suppression of the OA chondrocyte phenotype,[1],efficiently suppressed the OA chondrocyte phenotype
APTQLNAISVLYFDDSSNVI (listed as Homo sapiens) [SEQ ID NO: 9],suppression of the OA chondrocyte phenotype,[1],efficiently suppressed the OA chondrocyte phenotype
ETVPKPSSAPTQLNAISVLY (listed as Homo sapiens) [SEQ ID NO: 4],activity in the assays as employed herein (table 2),[1],lost its activity
FDDSSNVILKKYRNMVVRAS (listed as Homo sapiens) [SEQ ID NO: 15],suppression of the OA chondrocyte phenotype,[1],efficiently suppressed the OA chondrocyte phenotype
FINPETVPKPSSAPTQLNAI (listed as Homo sapiens) [SEQ ID NO: 2],activity in the assays as employed herein (table 2),[1],lost its activity
KPSSAPTQLNAISVLYFDDS (listed as Homo sapiens) [SEQ ID NO: 7],suppression of the OA chondrocyte phenotype,[1],efficiently suppressed the OA chondrocyte phenotype
LNAISVLYFDDSSNVILKKY (listed as Homo sapiens) [SEQ ID NO: 11],suppression of the OA chondrocyte phenotype,[1],efficiently suppressed the OA chondrocyte phenotype
LYFDDSSNVILKKYRNMVVR (listed as Homo sapiens) [SEQ ID NO: 14],suppression of the OA chondrocyte phenotype,[1],efficiently suppressed the OA chondrocyte phenotype
NPETVPKPSSAPTQLNAISV (listed as Homo sapiens) [SEQ ID NO: 3],activity in the assays as employed herein (table 2),[1],lost its activity
PKPSSAPTQLNAISVLYFDD (listed as Homo sapiens) [SEQ ID NO: 6],suppression of the OA chondrocyte phenotype,[1],efficiently suppressed the OA chondrocyte phenotype
SSAPTQLNAISVLYFDDSSN (listed as Homo sapiens) [SEQ ID NO: 8],suppression of the OA chondrocyte phenotype,[1],efficiently suppressed the OA chondrocyte phenotype
SSNVILKKYRNMVVRASGSH (listed as Homo sapiens) [SEQ ID NO: 17],suppression of the OA chondrocyte phenotype,[1],efficiently suppressed the OA chondrocyte phenotype
SVLYFDDSSNVILKKYRNMV (listed as Homo sapiens) [SEQ ID NO: 13],suppression of the OA chondrocyte phenotype,[1],efficiently suppressed the OA chondrocyte phenotype
same,PGE2 levels,[2],reduce PGE2 levels
same,PGE2 levels,[3],reduce PGE2 levels
same,PGE2 levels,[4],reduce PGE2 levels
same,PGE2 levels,[5],reduce PGE2 levels
same,Safranin-O intensity (glycosaminoglycans),Cartilage explants,increased Safranin-O intensity
TQLNAISVLYFDDSSNVILK (listed as Homo sapiens) [SEQ ID NO: 10],suppression of the OA chondrocyte phenotype,[1],efficiently suppressed the OA chondrocyte phenotype
VPKPSSAPTQLNAISVLYFD (listed as Homo sapiens) [SEQ ID NO: 5],activity in the assays as employed herein (table 2),[1],lost its activity
YSEGESAFPLNS (listed as Homo sapiens) [SEQ ID NO: 43],COL10A1 (pro-hypertrophic) gene expression,[6],downregulation
same,COX-2 (pro-hypertrophic) gene expression,[6],downregulation
same,Col2a1 (pro-chondrogenic) gene expression,[6],upregulation
same,RUNX2 (pro-hypertrophic) gene expression,[6],downregulation
same,Col10a1 gene expression,[7],downregulation
same,MMP13 gene expression,[7],downregulation
